Patent US8318746B2, “Nitrogen-containing five-membered heterocyclic compound” (Takeda Pharmaceutical Company Limited, priority 2007, dated 2012)

Legend:
[1] = molecular target: T1, GST-hLGK1 (GST added to the amino terminal of human liver GK) (Homo sapiens, UniProt P35557); test: Measurement of GK activation value; assay type: biochemical; conditions: test compound final concentration 10 μmol/L; reaction rate divided by that of control group (50% DMSO without test compound); Mant-ATP substrate, D-glucose, 37° C., 60 min
T1 construct: with a BamHI site added to immediately before the initiation codon; made in house; host or cells: Escherichia coli BL21 (Stratagene), plasmid pGEX6P-2/hLGK1
T1 sequence (P35557 1-464 isoform P35557-3): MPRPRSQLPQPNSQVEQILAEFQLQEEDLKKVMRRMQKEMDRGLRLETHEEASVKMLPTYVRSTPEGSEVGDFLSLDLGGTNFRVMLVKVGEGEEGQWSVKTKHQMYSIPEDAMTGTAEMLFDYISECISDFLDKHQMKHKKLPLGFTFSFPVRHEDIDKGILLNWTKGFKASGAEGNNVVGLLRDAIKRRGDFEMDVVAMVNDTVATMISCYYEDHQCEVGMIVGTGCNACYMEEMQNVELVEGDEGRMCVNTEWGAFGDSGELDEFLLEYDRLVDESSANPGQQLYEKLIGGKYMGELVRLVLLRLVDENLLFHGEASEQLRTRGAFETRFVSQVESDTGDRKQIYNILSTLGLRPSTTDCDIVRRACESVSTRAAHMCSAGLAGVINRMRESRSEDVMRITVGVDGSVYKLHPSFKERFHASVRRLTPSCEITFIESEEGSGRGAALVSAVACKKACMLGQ
Description: To each well of a 384-well black plate (Nalge Nunc International K.K.) was added 5 μL of 50% dimethyl sulfoxide solution containing test compound diluted to 100 μmol/L. Then, GST-hLGK1 obtained in Reference Example 2A was diluted with measurement buffer (containing 50 mM HEPES (pH 7.4), 200 mM KCl, 5 mM MgCl2, 2.5 mM DTT and 50 μM 2′-(or-3′)—O—(N-methylanthraniloyl) adenosine 5′-triphosphate (Mant-ATP) (Jena BioScience)) to 6 μg/mL and 35 μL thereof was added to each well.
Each well was stood at 37° C. for 10 min, 25 mM D-glucose solution (10 μL) was added to start the reaction. The final concentration of the test compound was 10 μmol/L.
Each, well after the reaction was stood at 37° C. for 60 min, and the reaction was quenched by adding 25 μL of a quenching solution (containing 200 mM HEPES (pH 7.4), 20 mM MgCl2, 200 mM EDTA, 0.03% Triton-X 100, 0.3% Coating 3 reagent (Caliper Life Sciences, Inc.)).
2′-(or-3′)-O-(N-methylanthraniloyl)adenosine 5′-triphosphate (Mant-ATP, substrate) and Mant-ADP (reaction resultant product) were separated from each well after the reaction by a microchip type capillary electrophoresis apparatus 250 HTS (Caliper Life Sciences, Inc.). The reaction rate [(reaction resultant product peak height)/(reaction resultant product peak height+substrate peak height)×100(%)] was calculated from the ratio of the substrate peak height and reaction resultant product peak height obtained by fluorescence detection (excitation wavelength 355 nm, measurement wavelength 460 nm) and used as the index of GK activity.
As a control group, the reaction rate was calculated in the same manner as above except that “solution in 50% dimethyl sulfoxide (without test compound)” was used instead of “solution of test compound in 50% dimethyl sulfoxide”.
The reaction rate of the well (test compound addition group) added with the test compound was divided by the reaction rate of the control group and the obtained percentage was taken as the GK activation value (Emax) of the test compound.

Emax at 10 µM [1] [%]	melting point [°C]	Structure (SMILES)
195		CS(=O)(=O)c1ccc(C(CC2CCCC2)c2ccc(-c3nccs3)[nH]2)cc1 (centres unmarked) [Example 1, 2-(5-{2-cyclopentyl-1-[4-(methylsulfonyl)phenyl]ethyl}-1H-pyrrol-2-yl)-1,3-thiazole]
168		CS(=O)(=O)c1ccc(C(CC2CCCC2)c2ccc(-c3ccccn3)[nH]2)cc1 (centres unmarked) [Example 2, 2-(5-{2-cyclopentyl-1-[4-(methylsulfonyl)phenyl]ethyl}-1H-pyrrol-2-yl)pyridine]
180		CS(=O)(=O)c1ccc(C(CC2CCCC2)c2ccc(-c3cnccn3)[nH]2)cc1 (centres unmarked) [Example 3, 2-(5-{2-cyclopentyl-1-[4-(methylsulfonyl)phenyl]ethyl}-1H-pyrrol-2-yl)pyrazine]
227		Cn1ccnc1-c1ccc(C(CC2CCCC2)c2ccc(S(C)(=O)=O)cc2)[nH]1 (centres unmarked) [Example 4, 2-(5-{2-cyclopentyl-1-[4-(methylsulfonyl)phenyl]ethyl}-1H-pyrrol-2-yl)-1-methyl-1H-imidazole]
167		Cn1cnc(-c2ccc(C(CC3CCCC3)c3ccc(S(C)(=O)=O)cc3)[nH]2)c1 (centres unmarked) [Example 5, 4-(5-{2-cyclopentyl-1-[4-(methylsulfonyl)phenyl]ethyl}-1H-pyrrol-2-yl)-1-methyl-1H-imidazole]
198		Cn1ccc(-c2ccc(C(CC3CCCC3)c3ccc(S(C)(=O)=O)cc3)[nH]2)n1 (centres unmarked) [Example 6, 3-(5-{2-cyclopentyl-1-[4-(methylsulfonyl)phenyl]ethyl}-1H-pyrrol-2-yl)-1-methyl-1H-pyrazole]
179		O=S(=O)(c1ccc(C(CC2CCOCC2)c2ccc(-c3nccs3)[nH]2)cc1)C1CC1 (centres unmarked) [Example 7, 2-{5-[1-[4-(cyclopropylsulfonyl)phenyl]-2-(tetrahydro-2H-pyran-4-yl)ethyl]-1H-pyrrol-2-yl}-1,3-thiazole]
225		CCOC(=O)c1[nH]c(C(CC2CCCC2)c2ccc(S(C)(=O)=O)cc2)cc1C (centres unmarked) [Example 8, Ethyl 5-{2-cyclopentyl-1-[4-(methylsulfonyl)phenyl]ethyl}-3-methyl-1H-pyrrole-2-carboxylate]
173		Cc1cc(C(CC2CCCC2)c2ccc(S(C)(=O)=O)cc2)[nH]c1C(=O)O (centres unmarked) [Example 9, 5-{2-cyclopentyl-1-[4-(methylsulfonyl)phenyl]ethyl}-3-methyl-1H-pyrrole-2-carboxylic acid]
193		Cc1cc(C(CC2CCCC2)c2ccc(S(C)(=O)=O)cc2)[nH]c1C(N)=O (centres unmarked) [Example 10, 5-{2-cyclopentyl-1-[4-(methylsulfonyl)phenyl]ethyl}-3-methyl-1H-pyrrole-2-carboxamide]
160		Cc1cc(C(CC2CCCC2)c2ccc(S(C)(=O)=O)cc2)[nH]c1-c1nccs1 (centres unmarked) [Example 11, 2-(5-{2-cyclopentyl-1-[4-(methylsulfonyl)phenyl]ethyl}-3-methyl-1H-pyrrol-2-yl)-1,3-thiazole]
185		CC(C)C(=O)c1[nH]c(C(CC2CCCC2)c2ccc(S(C)(=O)=O)cc2)nc1F (centres unmarked) [Example 14, 1-(2-{2-cyclopentyl-1-[4-(methylsulfonyl)phenyl]ethyl}-4-fluoro-1H-imidazol-5-yl)-2-methylpropan-1-one]
188		CCCC(=O)c1[nH]c(C(CC2CCCC2)c2ccc(S(C)(=O)=O)cc2)nc1F (centres unmarked) [Example 17, 1-(2-{2-cyclopentyl-1-[4-(methylsulfonyl)phenyl]ethyl}-4-fluoro-1H-imidazol-5-yl)butan-1-one]
157		CS(=O)(=O)c1ccc(C(CC2CCCC2)c2ncc(C(=O)C3CCC3)[nH]2)cc1 (centres unmarked) [Example 21, Cyclobutyl(2-{2-cyclopentyl-1-[4-(methylsulfonyl)phenyl]ethyl}-1H-imidazol-5-yl)methanone]
190		O=C(c1[nH]c(C(CC2CCCC2)c2ccc(S(=O)(=O)C3CC3)cc2)nc1F)C1CC1 (centres unmarked) [Example 24, (2-{2-cyclopentyl-1-[4-(cyclopropylsulfonyl)phenyl]ethyl}-4-fluoro-1H-imidazol-5-yl)(cyclopropyl)methanone]
218		O=C1CC[C@H](CC(c2ccc(S(=O)(=O)C3CC3)cc2)c2nc(F)c(C(=O)C3CCC3)[nH]2)C1 (stereo partly drawn) [Example 29, (3R)-3-{2-[5-(cyclobutylcarbonyl)-4-fluoro-1H-imidazol-2-yl]-2-[4-(cyclopropylsulfonyl)phenyl]ethyl}cyclopentanone]
178		O=S(=O)(c1ccc(C(CC2CCOCC2)c2ccc(-c3ncc(C(O)CO)s3)[nH]2)cc1)C1CC1 (centres unmarked) [Example 34, 1-[2-(5-{1-[4-(cyclopropylsulfonyl)phenyl]-2-(tetrahydro-2H-pyran-4-yl)ethyl}-1H-pyrrol-2-yl)-1,3-thiazol-5-yl]ethane-1,2-diol]
	105 to 106	CC(O)c1cnc(-c2ccc(C(CC3CCOCC3)c3ccc(S(=O)(=O)C4CC4)cc3)[nH]2)s1 (centres unmarked) [Example 166, Optically Active Form of 1-[2-(5-{1-[4-(cyclopropylsulfonyl)phenyl]-2-(tetrahydro-2H-pyran-4-yl)ethyl}-1H-pyrrol-2-yl)-1,3-thiazol-5-yl]ethanol]
	112 to 114	CC(O)c1cnc(-c2ccc(C(CC3CCOCC3)c3ccc(S(=O)(=O)C4CC4)cc3)[nH]2)s1 (centres unmarked) [Example 167, Optically Active form of 1-[2-(5-{1-[4-(cyclopropylsulfonyl)phenyl]-2-(tetrahydro-2H-pyran-4-yl)ethyl}-1H-pyrrol-2-yl)-1,3-thiazol-5-yl]ethanol]
	115 to 116	CC(O)c1cnc(-c2ccc(C(CC3CCOCC3)c3ccc(S(=O)(=O)C4CC4)cc3)[nH]2)s1 (centres unmarked) [Example 168, Optically Active Form of 1-[2-(5-{1-[4-(cyclopropylsulfonyl)phenyl]-2-(tetrahydro-2H-pyran-4-yl)ethyl}-1H-pyrrol-2-yl)-1,3-thiazol-5-yl]ethanol]
	120 to 122	COC(=O)Nc1cc(-c2nccs2)[nH]c1C(CC1CCOCC1)c1ccc(S(=O)(=O)C2CC2)cc1 (centres unmarked) [Example 181, Methyl [2-{1-[4-(cyclopropylsulfonyl)phenyl]-2-(tetrahydro-2H-pyran-4-yl)ethyl}-5-(1,3-thiazol-2-yl)-1H-pyrrol-3-yl]carbamate]
	106 to 109	CS(=O)(=O)c1ccc(C(CC2CCOCC2)c2cnc(-c3ccccn3)[nH]2)cc1Cl (centres unmarked) [Example 183, 2-(5-{1-[3-chloro-4-(methylsulfonyl)phenyl]-2-(tetrahydro-2H-pyran-4-yl)ethyl}-1H-imidazol-2-yl)pyridine]
	208.5 to 208.6	O=S(=O)(c1ccc(C(CC2CCOCC2)c2ccc(-c3nnc(CO)s3)[nH]2)cc1)C1CC1 (centres unmarked) [Example 206, [5-(5-{1-[4-(cyclopropylsulfonyl)phenyl]-2-(tetrahydro-2H-pyran-4-yl)ethyl}-1H-pyrrol-2-yl)-1,3,4-thiadiazol-2-yl]methanol]
	196 to 197	CC(C)(O)C(O)c1ccc(-c2ccc(/C(=C/C3CCOCC3)c3ccc(S(=O)(=O)C4CC4)cc3)[nH]2)nc1 (centres unmarked) [Example 220, 1-(6-{5-[(E)-1-[4-(cyclopropylsulfonyl)phenyl]-2-(tetrahydro-2H-pyran-4-yl)ethenyl]-1H-pyrrol-2-yl}pyridin-3-yl)-2-methylpropane-1,2-diol]
	199 to 201	CS(=O)(=O)c1ccc(C(CC2CCOCC2)c2ccc(-c3nnc(CO)s3)[nH]2)cc1 (centres unmarked) [Example 221, [5-(5-{1-[4-(methylsulfonyl)phenyl]-2-(tetrahydro-2H-pyran-4-yl)ethyl}-1H-pyrrol-2-yl)-1,3,4-thiadiazol-2-yl]methanol]
	135 to 136	CC(CC1CCOCC1)(c1ccc(S(C)(=O)=O)cn1)c1ccc(-c2ccccn2)[nH]1 (centres unmarked) [Example 245, 2-[1-methyl-1-(5-(pyridin-2-yl)-1H-pyrrol-2-yl)-2-(tetrahydro-2H-pyran-4-yl)ethyl]-5-(methylsulfonyl)pyridine]
